Reference: PubChem BioAssay (NCI)
Where “and” joins values, the source holds several entries; their conditions need not be identical. Identical values can stand only once.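 Interpolation was linear, between the two tested concentrations surrounding the appropriate level; five concentrations were tested over 48 hours in 96-well plates. Here, GI50 denotes the concentration required for 50% inhibition of growth. TGI denotes the concentration required for complete inhibition of growth.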

How the values were obtained:
Experiment in all cases: NCI-60 cell line screen, 48 h
[1] = system: ACHN renal
[2] = system: CCRF-CEM leukemia
[3] = system: HCT-15 colon
[4] = system: HOP-92 NSCLC
[5] = system: M14 melanoma
[6] = system: NCI-H226 lung
[7] = system: OVCAR-4 ovarian
[8] = system: SK-MEL-28 melanoma
[9] = system: SR leukemia
[10] = system: UACC-257 melanoma

Row | SMILES | TGI [1] | GI50 [2] [µM] | TGI [2] | GI50 [3] [nM] | TGI [3] | GI50 [4] [nM] | TGI [4] | GI50 [5] [nM] | TGI [5] | GI50 [6] [nM] | TGI [6] | GI50 [7] [µM] | TGI [7] | TGI [8] [µM] | GI50 [9] [nM] | TGI [9] | GI50 [10] [µM] | TGI [10] | GI50 [1] [µM] | GI50 [8] [nM]
1 | Cc1c(N)nc(C(CC(N)=O)NCC(N)C(N)=O)nc1C(=O)NC(C(=O)NC(C)C(O)C(C)C(=O)NC(C(=O)NCCc1nc(-c2nc(C(=O)NCCCNC(C)c3ccccc3)cs2)cs1)C(C)O)C(OC1OC(CO)C(O)C(O)C1OC1OC(CO)C(O)C(OC(N)=O)C1O)c1cnc[nH]1 (stereo not drawn) | 0.189 µM and 1.48 µM | 7.5 | 50 µM and > 100 µM | 26800 | 50 µM and > 100 µM | 227 | 3.51 µM and 25.8 µM | 5130 | 29.6 µM and > 100 µM | 1590 | 2.97 µM and 24.8 µM | 81.5 | 33.7 µM and > 100 µM | 50 | 50300 | 50 µM and > 100 µM | 56.5 | 50 µM and > 100 µM | – | –
2 | N/N=C(\c1nc2ccc(Cl)cc2[nH]c1=O)C(O)c1ccc(Cl)c(Cl)c1 (stereo not drawn) | > 100 µM | – | > 100 µM | – | > 100 µM | – | > 100 µM | – | > 100 µM | – | > 100 µM | – | 87.8 µM | > 100 | – | > 100 µM | – | > 100 µM | – | –
3 | CC([C@H]1CC=C2C3CCC4=C[C@@H](N(C)C)CC[C@]4(C)C3CC[C@@]21C)N(C)C (stereo partly drawn) | 14.7 µM | 2.11 | 7.79 µM | 1380 | 3.82 µM | 3660 | 10.3 µM | 1760 | 3.53 µM | 4520 | 21.5 µM | 3.26 | 21.9 µM | 3.38 | 876 | 4.19 µM | 6.1 | 19.4 µM | 4.07 | 1740
4 | Cc1ccc(S(=O)(=O)c2ccc(C)cc2[N+](=O)[O-])cc1 | > 100 µM | – | > 100 µM | – | > 100 µM | – | > 100 µM | – | > 100 µM | – | > 100 µM | – | > 100 µM | > 100 | – | > 100 µM | – | > 100 µM | – | –
5 | O=C(c1ccco1)c1c(C(F)(F)F)n([O-])c2cc(C(F)(F)F)ccc2[n+]1=O | 0.748 µM | < 0.0434 | 0.352 µM | 404 | 0.842 µM | 252 | 1.51 µM | 1620 | 3.05 µM | 1770 | 3.58 µM | 1.35 | 3.94 µM | 3.27 | 39.4 | 0.265 µM | 1.55 | 3.27 µM | 0.338 | 1670
6 | COC(=O)/C(C#N)=C(\N)C(Cl)(Cl)Cl | 6.6 µM | – | 2.67 µM | – | 8.43 µM | – | 9.85 µM | – | 3.31 µM | – | – | – | 8.56 µM | 4.66 | – | 5.37 µM | – | 12.6 µM | – | –
7 | CCOC(=O)C1=C(C)N(NC(N)=O)C2(N)N(NC(N)=O)C(C)=C(C(=O)OCC)C12C(=O)OCC (stereo not drawn) | > 100 µM | – | – | – | > 100 µM | – | – | – | > 100 µM | – | > 100 µM | – | > 100 µM | > 100 | – | > 100 µM | – | > 100 µM | – | –
8 | Cc1[nH]c(N)nc(=S)c1CCC(=O)O | > 100 µM | – | > 100 µM | – | > 100 µM | – | > 100 µM | – | > 100 µM | – | > 100 µM | – | > 100 µM | > 100 | – | > 100 µM | – | > 100 µM | – | –
9 | NC(N)=NC(N)=NCCCc1ccco1 | > 500 µM | 21.8 | 121 µM | > 500000 | > 500 µM | 57500 | 158 µM | 53600 | 123 µM | 98300 | 351 µM | 96.8 | 268 µM | 91.3 | 19600 | 89.8 µM | 19.2 | 101 µM | > 500 | 23100
10 | C[C@H]1COCCN1c1cc(C2(S(=O)(=O)C3CC3)CC2)nc(-c2ccc(NC(=S)NCCO)cc2)n1 | > 100 µM | 0.0323 | > 100 µM | 170 | > 100 µM | < 10 | 0.0607 µM | 28.7 | 10.1 µM | 23.7 | 1.34 µM | 0.0159 | 0.233 µM | 1.1 | 29.6 | > 58.2 µM | 0.0187 | 0.32 µM | 0.0705 | < 10
11 | CCCCCC[C@@H](C)NC(=O)c1ccc(Nc2nc3ccccc3c3occc23)cc1 | 91.7 µM | 3.89 | 15.4 µM | 8930 | > 100 µM | 1990 | 7.91 µM | 2230 | 8.3 µM | – | – | – | – | > 100 | 18900 | 45.5 µM | 2.19 | 5.66 µM | 24.8 | 5500
12 | COC1CCC(OC)C(C2(C3CC(OC)CCC3OC)OC(=O)c3ccccc32)C1 (stereo not drawn) | > 100 µM | – | – | – | > 100 µM | – | > 100 µM | – | > 100 µM | – | > 100 µM | – | > 100 µM | – | – | > 100 µM | – | > 100 µM | – | –
13 | C=C1C(=O)O[C@H]2[C@H]1CC/C(COC(=O)CCCc1c[nH]c3ccccc13)=C\CC[C@@]1(C)O[C@@H]21 | – | 0.715 | 7.5 µM | 1610 | 3.99 µM | 1680 | 3.46 µM | 1660 | 3.87 µM | 2040 | 4.38 µM | 1.66 | 3.28 µM | 3.27 | 1730 | 6.37 µM | 2.03 | 3.96 µM | – | 1700
14 | Nc1nc(SCc2ccccc2Cl)cc(C(=O)O)n1 | > 100 µM | – | > 100 µM | – | > 100 µM | – | > 100 µM | – | > 100 µM | – | > 100 µM | – | > 100 µM | > 100 | – | > 100 µM | – | > 100 µM | – | –
15 | NCCNC(=O)c1cccc2cc3ccccc3nc12 | – | – | – | – | 15 µM | – | > 100 µM | – | 11 µM | – | 3.61 µM | – | 15.2 µM | 9.71 | – | 53.8 µM | – | 8.81 µM | – | –
16 | COc1ccc(/C=C2\SC(=Nc3ccccc3)NC2=O)cc1 | 48.5 µM | 5.4 | > 100 µM | 2730 | > 100 µM | 7640 | 53.5 µM | – | – | 13800 | > 100 µM | 10 | 25.7 µM | 44.8 | 2500 | 30.7 µM | 52.2 | > 100 µM | 5.53 | 8060
